Values quoted from earlier work as cited in PMC10998826 (EJNMMI Research, 2024).

Settings: active metabolite of sacubitril; cited from earlier work
Description: Sacubitril (AHU377) is a potent inhibitor of the NEP. The combination of sacubitril and the angiotensin-receptor blocker valsartan (Entresto®) is effective in reducing the risks of death and of hospitalization for heart failure and is approved for this indication in numerous countries. The highest blood plasma concentration of its active metabolite, LBQ657, is measured around two hours after oral intake.

Question: For `C[C@H](C[C@@H](Cc1ccc(-c2ccccc2)cc1)NC(=O)CCC(=O)O)C(=O)O` [LBQ657], which “Time of highest blood plasma concentration after oral intake” value is on record?
Answer: The value was “around two”.
